Entries after “also recorded” stand apart in the source; their conditions may differ.
How the values were obtained:
[1] = test system: DBA/1 mice (audiogenic seizures, seizure-induced respiratory arrest); experiment: Reversal of FFA's anticonvulsant and S-IRA blocking effects by selective 5-HT receptor antagonists in DBA/1 mice; assay type: in vivo, mouse; conditions: for reversal of S-IRA blocking effect of FFA (reduction in S-IRA incidence) / reversal of anticonvulsant effect of FFA (seizure severity, incidence of tonic seizures): antagonist dose not stated; for reversal of FFA's S-IRA blocking effect: 30 min before AGSz
[2] = test system: DBA/1 mice (audiogenic seizures, seizure-induced respiratory arrest); experiment: Dose- and time-dependent effects of FFA on audiogenic seizures (AGSz) and S-IRA in DBA/1 mice; assay type: in vivo, mouse
Excerpt: These studies involved age matched (<80 days) male DBA/1 mice obtained from ENVIGO. […] Starting at postnatal day 23-25, the mice were primed and tested for consistent susceptibility to AGSz and S-IRA by presenting an intense acoustic stimulus, as described previously.
The typical seizure semiology in the DBA/1 mice begins with a wild running phase, followed by clonic-tonic seizures and then tonic hind-limb extension that immediately leads to S-IRA during post-ictal behavioral depression (PID). The onset of S-IRA was visually determined by the occurrence of respiratory failure following loss of the righting reflex, relaxation of the pinnae, and then a generalized loss of muscle tone. These behaviors are reliable indicators of imminent sudden death in DBA mice. […] The mice were placed in a supine position, and a polyethylene tube (4.4 mm external diameter) connected to the outflow of a rodent respirator (Harvard Apparatus 680), pumping one cc of room air at 200 strokes/min, was the placed over the nostrils, which produced observable displacement of the chest. […] The mice were monitored until they regained the righting reflex and then returned to their home cage. Video recordings of seizure behaviors and recovery were made for off-line evaluation and analysis, including the duration of PID, as indicated by time from muscle tone loss to return of the righting reflex.
The videos of seizure behaviors were analyzed visually, and the incidence (frequency) of AGSz, seizure severity, and incidence (frequency) of S-IRA following drug treatment were compared statistically to vehicle controls using the Chi-square, Mann-Whitney U or paired samples t-test with SPSS software. The ED50 was calculated using SigmaPlot 13 and Microsoft® Excel. The experimental protocols used in these studies were approved by the Laboratory Animal Care and Use Committee of Southern Illinois University School of Medicine, which are in accordance with National Institutes of Health guidelines for the care and use of laboratory animals. Measures to minimize animal usage as well as pain and discomfort were included in these procedures.
The incidence of S-IRA and tonic seizures were analyzed Chi-square test with a significance level set at p<0.05.

[3] = test system: patients with Dravet syndrome; conditions: add-on (adjunctive) agent; cited from earlier work
5-HT2B receptor = 5-HT2B receptor (Homo sapiens, UniProt P41595); conditions: cited from earlier work
Sequence of 5-HT2B receptor (P41595 whole entry): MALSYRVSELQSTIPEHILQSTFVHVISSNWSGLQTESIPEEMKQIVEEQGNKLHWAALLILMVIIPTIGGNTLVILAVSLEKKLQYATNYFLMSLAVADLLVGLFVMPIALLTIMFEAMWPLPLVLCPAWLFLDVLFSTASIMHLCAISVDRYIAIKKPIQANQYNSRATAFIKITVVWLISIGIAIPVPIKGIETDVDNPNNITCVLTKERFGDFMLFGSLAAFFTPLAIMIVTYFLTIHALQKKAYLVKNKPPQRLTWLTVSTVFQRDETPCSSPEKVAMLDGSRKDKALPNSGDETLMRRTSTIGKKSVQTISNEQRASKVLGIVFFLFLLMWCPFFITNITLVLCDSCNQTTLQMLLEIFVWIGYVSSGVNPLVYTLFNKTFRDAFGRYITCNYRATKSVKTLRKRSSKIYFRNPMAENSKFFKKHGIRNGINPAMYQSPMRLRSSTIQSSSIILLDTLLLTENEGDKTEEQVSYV

5-HT2C receptor = target: T1, 5-HT2C receptor (Homo sapiens, UniProt P28335); conditions: cited from earlier work
T1 sequence (P28335 33-458): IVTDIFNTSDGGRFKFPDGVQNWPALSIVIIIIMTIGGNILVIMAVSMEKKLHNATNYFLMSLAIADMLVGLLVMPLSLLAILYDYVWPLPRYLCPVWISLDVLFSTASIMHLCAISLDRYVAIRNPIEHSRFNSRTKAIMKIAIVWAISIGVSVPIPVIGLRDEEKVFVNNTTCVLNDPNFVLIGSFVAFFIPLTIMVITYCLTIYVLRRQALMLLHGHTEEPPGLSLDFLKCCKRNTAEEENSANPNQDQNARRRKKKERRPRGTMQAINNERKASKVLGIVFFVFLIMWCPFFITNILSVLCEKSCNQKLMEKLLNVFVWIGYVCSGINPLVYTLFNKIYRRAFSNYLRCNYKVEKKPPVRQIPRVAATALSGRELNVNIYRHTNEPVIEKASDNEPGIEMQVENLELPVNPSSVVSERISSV

[4] = in vivo; cited from earlier work
[5] = oral administration; cited from earlier work
DBA mice = conditions: cited from earlier work; for seizure-induced respiratory failure and death in DBA mice: dose-dependent manner

CCNC(C)Cc1cccc(C(F)(F)F)c1 (racemic) [FFA, 3-trifluoromethyl-N-ethylamphetamine]
action at the 5-HT4 receptor, concluded from reversal by GR125487 ([1]; conclusion from antagonist study in DBA/1 mice): agonist | incidence of S-IRA ([2]; FFA 5 mg/kg i.p.): not affected | incidence of S-IRA ([2]; FFA 10 mg/kg i.p., starting at 8 h, vs saline treated controls): significant reduction | incidence of S-IRA ([2]; FFA 15 mg/kg (n=73) vs saline (n=38), FIGS. 1C-1D): reduction | incidence of S-IRA ([2]; FFA 15 mg/kg i.p., starting at 8 h, vs saline treated controls): significant reduction | return of tonic AGSz and S-IRA susceptibility (time after FFA) ([2]; FFA 20 mg/kg): approximately 48 h | incidence of S-IRA ([2]; FFA 20 mg/kg i.p., starting at 8 h, vs saline treated controls): significant reduction | effect on S-IRA ([2]; FFA 10-20 mg/kg): blocking effect | mice with significant reduction in the incidence of S-IRA ([2]; FFA 10-20 mg/kg, 8 h time point (FIG. 1B)): 100% | incidence of tonic seizures ([2]; FFA i.p., dose not stated): significantly reduced | seizure severity / AGSz susceptibility ([2]; dose- and time-dependent): significantly reduced seizure severity or blocked AGSz susceptibility | seizure activity (frequency and/or severity) [3]: significantly reduced | affinity for 5-HT2B receptor (5-HT2B receptor): high affinity | affinity for 5-HT2C receptor (5-HT2C receptor): high affinity

Cc1nccn1CC1CCc2c(c3ccccc3n2C)C1=O (stereo not drawn) [Ondansetron]
reversal of FFA's effect (AGSz severity / S-IRA) ([1]; Ondansetron 1-3 mg/kg): not effective at any dose tested | reversal of FFA's effect (AGSz severity / S-IRA) ([1]; Ondansetron 2-3 mg/kg): not effective at any dose tested | reversal of S-IRA blocking effect of FFA (reduction in S-IRA incidence) [1]: did not reverse | reversal of anticonvulsant effect of FFA (seizure severity, incidence of tonic seizures) [1]: did not reverse

CCC1(c2ccccc2)C(=O)NC(=O)NC1=O [Phenobarbital]
half-life [4]: 92 h

Cc1nc2sccn2c(=O)c1CCN1CCC(=C(c2ccc(F)cc2)c2ccc(F)cc2)CC1 [Ritanserin]
reversal of FFA's anticonvulsant effect against the severity of AGSz ([1]; Ritanserin 20 mg/kg): able to reverse; also recorded: block | reversal of FFA's anticonvulsant effect against the severity of AGSz ([1]; Ritanserin 10-20 mg/kg): able to reverse | reversal of FFA's S-IRA blocking effect ([1]; Ritanserin 10-20 mg/kg): not its S-IRA blocking effect | reversal of S-IRA blocking effect of FFA (reduction in S-IRA incidence) [1]: reversed | reversal of anticonvulsant effect of FFA (seizure severity, incidence of tonic seizures) [1]: reversed

CC1CCN(CC[C@H]2CCCN2S(=O)(=O)c2cccc(O)c2)CC1 [SB269970]
reversal of FFA's anticonvulsant effect against the severity of AGSz ([1]; SB269970 30 mg/kg and 40 mg/kg): able to reverse; also recorded: block | reversal of FFA's S-IRA blocking effect ([1]; SB269970 30 mg/kg and 40 mg/kg): not its S-IRA blocking effect | reversal of anticonvulsant effect of FFA (seizure severity, incidence of tonic seizures) [1]: reversed

CC[C@@H](c1cccc(O)c1)[C@@H](C)CN(C)C [Tapentadol]
duration of analgesia [5]: 4 to 6 h | onset of analgesia [5]: ≤ 32 min

COc1ccccc1N1CCN(CCN(C(=O)C2CCCCC2)c2ccccn2)CC1 [WAY100635]
reversal of FFA's effect (AGSz severity / S-IRA) ([1]; WAY100635 0.1-15 mg/kg): not effective at any dose tested

CNCC[C@@H](Oc1ccccc1C)c1ccccc1 [atomoxetine]
seizure-induced respiratory failure and death in DBA mice (DBA mice): prevent

CNCCC(Oc1ccc(C(F)(F)F)cc1)c1ccccc1 (stereo not drawn) [fluoxetine]
S-IRA in DBA/1 mice (DBA mice; acting via 5-HT3 receptors): can prevent | seizure-induced respiratory failure and death in DBA mice (DBA mice): prevent

COCCCC/C(=N\OCCN)c1ccc(C(F)(F)F)cc1 [fluvoxamine]
seizure-induced respiratory failure and death in DBA mice (DBA mice): prevent

CN[C@H]1CC[C@@H](c2ccc(Cl)c(Cl)c2)c2ccccc21 [sertraline]
seizure-induced respiratory failure and death in DBA mice (DBA mice): prevent

COc1ccc(C(CN(C)C)C2(O)CCCCC2)cc1 (stereo not drawn) [venlafaxine]
seizure-induced respiratory failure and death in DBA mice (DBA mice): prevent

— patent US10952976B2 (priority 2018, dated 2021)
